{"source": "paper PMC11053447", "about": "“Human ABC and SLC Transporters: The Culprit Responsible for Unspecific PSMA-617 Uptake?” (Pharmaceuticals, 2024)", "key": {"[1]": {"biological_target": "T1, human OAT4 (Homo sapiens, UniProt Q9NSA0)", "T1 sequence (Q9NSA0 1-550)": "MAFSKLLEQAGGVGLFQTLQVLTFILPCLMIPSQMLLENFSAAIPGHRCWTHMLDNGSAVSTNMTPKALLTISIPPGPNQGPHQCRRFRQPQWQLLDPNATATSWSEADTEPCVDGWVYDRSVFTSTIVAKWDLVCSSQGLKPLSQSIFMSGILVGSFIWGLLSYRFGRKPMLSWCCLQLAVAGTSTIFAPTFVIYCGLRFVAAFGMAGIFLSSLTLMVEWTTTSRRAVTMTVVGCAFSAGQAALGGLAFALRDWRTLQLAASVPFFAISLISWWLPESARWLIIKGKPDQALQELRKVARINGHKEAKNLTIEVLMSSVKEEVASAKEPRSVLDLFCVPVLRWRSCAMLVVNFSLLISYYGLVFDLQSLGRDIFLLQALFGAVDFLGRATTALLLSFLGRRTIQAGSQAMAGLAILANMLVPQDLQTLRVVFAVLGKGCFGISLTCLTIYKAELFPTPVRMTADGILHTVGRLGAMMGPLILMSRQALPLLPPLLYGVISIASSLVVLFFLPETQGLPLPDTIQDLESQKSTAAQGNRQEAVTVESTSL", "test": "SLC transporter substrate assay, HEK293-OAT4-LV vs control HEK293-Mock-LV cells", "settings": "20 min"}, "[2]": {"biological_target": "T2, human OCT3 (Homo sapiens, UniProt O75751)", "T2 construct": "host or cells: HEK293-OCT3-LV", "T2 sequence (O75751 1-556)": "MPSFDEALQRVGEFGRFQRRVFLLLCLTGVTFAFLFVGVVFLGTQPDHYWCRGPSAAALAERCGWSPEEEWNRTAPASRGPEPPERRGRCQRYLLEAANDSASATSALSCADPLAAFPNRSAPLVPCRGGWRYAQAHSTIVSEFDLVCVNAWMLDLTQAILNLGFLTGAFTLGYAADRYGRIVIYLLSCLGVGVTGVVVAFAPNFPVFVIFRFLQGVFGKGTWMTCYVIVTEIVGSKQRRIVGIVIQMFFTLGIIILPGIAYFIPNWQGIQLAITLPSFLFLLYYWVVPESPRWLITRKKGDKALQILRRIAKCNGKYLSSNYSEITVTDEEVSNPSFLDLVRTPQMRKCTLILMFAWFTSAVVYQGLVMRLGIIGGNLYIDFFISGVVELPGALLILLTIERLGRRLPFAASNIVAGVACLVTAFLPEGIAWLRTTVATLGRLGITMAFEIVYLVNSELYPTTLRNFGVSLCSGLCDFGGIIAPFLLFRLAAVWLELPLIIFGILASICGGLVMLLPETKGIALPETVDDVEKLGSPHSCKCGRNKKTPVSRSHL", "test": "SLC transporter substrate assay, HEK293-OCT3-LV vs control HEK293-Mock-LV cells", "type": "in vitro ADME", "experimental": "SI4. Results of transporter substrate assays (SLC)\nHuman Incubation Positive control substrate/ Control Special Incubation Assay […]\n(Cell line) at 37°C [min] [h] […]\ninto transfected and control cells.\nFold accumulation = UPTTRP\nPSMA-617 in SLC transporters.\nNA: not analyzed. Test substances were considered as substrates in case of fold accumulation values > 2 combined with inhibition values higher than 50%.\n4.7 Organic cation transporter OCT3\n(HEK293-OCT3-LV) and control cells (HEK293-Mock-LV) applying 2- and 20-minute incubation periods, measured in SLC transporter substrate assay. […] Concentrations are nominal.\nTable S16: ([α,β-3H]Nal)Lu-PSMA-617-accumulation in OCT3 transporter-expressing (HEK293-OCT3-LV) and control […]\nConditions Accumulation (pmol/mg protein)\nCompound Nominal In OCT3 Fold concentration Minutes transporter In control Active accumulation\n[µM] expressing cells transport\nPositive control (accumulation in cpm)\nMPP +: 1-methyl -4-phenylpyridinium."}, "[3]": {"biological_target": "T3, human BCRP (Homo sapiens, UniProt Q9UNQ0)", "T3 sequence (Q9UNQ0 1-655)": "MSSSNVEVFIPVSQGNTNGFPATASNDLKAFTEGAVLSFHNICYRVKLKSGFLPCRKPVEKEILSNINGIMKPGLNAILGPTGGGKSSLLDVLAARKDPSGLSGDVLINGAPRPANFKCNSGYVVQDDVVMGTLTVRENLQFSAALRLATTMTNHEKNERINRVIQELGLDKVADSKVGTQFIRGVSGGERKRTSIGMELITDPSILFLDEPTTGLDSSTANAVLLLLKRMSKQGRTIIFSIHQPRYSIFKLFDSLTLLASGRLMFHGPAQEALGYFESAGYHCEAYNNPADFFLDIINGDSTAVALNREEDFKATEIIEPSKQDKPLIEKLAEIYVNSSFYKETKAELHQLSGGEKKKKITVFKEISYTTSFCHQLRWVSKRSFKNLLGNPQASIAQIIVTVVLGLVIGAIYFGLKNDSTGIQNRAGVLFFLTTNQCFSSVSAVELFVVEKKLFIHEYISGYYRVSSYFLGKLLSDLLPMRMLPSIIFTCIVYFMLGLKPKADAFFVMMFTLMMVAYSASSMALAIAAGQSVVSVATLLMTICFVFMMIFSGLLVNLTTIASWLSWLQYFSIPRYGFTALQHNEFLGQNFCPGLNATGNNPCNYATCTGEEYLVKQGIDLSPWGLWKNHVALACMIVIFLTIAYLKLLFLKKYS", "settings": "E3S probe; for ATP dependent transport / Relative ATP dependent transport: mean (n=3) ± SD", "protocol": "The incubations were carried out in the presence of 4 mM ATP or AMP to distinguish between transporter-mediated uptake and passive diffusion into the vesicles. […] Afterwards, the reaction mixtures were pre-incubated for 15 min at 37 °C for MRP1 or at 32 °C for BCRP, MDR1 and MRP4, respectively. The transporter assay was initiated through the addition of 25 μL of pre-warmed 12 mM MgATP (or 12 mM AMP in assay buffer as a background control). The reactions were quenched through the addition of 200 μL of ice-cold washing buffer and immediate filtration via glass fiber filters mounted onto a 96-well plate (filter plate). The filters were washed (5 × 200 μL of ice-cold washing buffer) and dried, and the amount of probe substrate inside the filtered vesicles was determined using LSC. The experiments were conducted in triplicate.\nCalculation of ATP-dependent transport and inhibition for vesicular transport inhibition\nFor all wells the amount of the translocated probe substrate was determined in counts per minute (cpm).\nATP-dependent transport (pmol/mg protein/min) is calculated for each concentration using the following\n𝐴𝑐𝑐𝐴𝑇𝑃 ∙ 𝑉 ∙ 𝐶𝐶 𝐴𝑐𝑐𝐴𝑀𝑃 ∙𝑉 ∙𝐶𝐶\n𝐴𝑇𝑃 − 𝑑𝑒𝑝𝑒𝑛𝑑𝑒𝑛𝑡 𝑎𝑐𝑐𝑢𝑚𝑢𝑙𝑎𝑡𝑖𝑜𝑛 = ( 𝑇𝐶𝑃𝑀 𝑠𝑢𝑏) − ( 𝑇𝐶𝑃𝑀 𝑠𝑢𝑏)\n• AccATP: probe substrate accumulation with ATP (cpm)\n• AccAMP: probe substrate accumulation with AMP (cpm)\n• Tcpm: cpm in dosing solution V: volume per well (µL)\n• CCsub: probe substrate concentration (µM)\n• Prot: total protein per well (mg)\n• t: incubation time (min)\nRelative ATP-dependent transport (%) values were calculated using the following equation:\n𝑅𝑒𝑙𝑎𝑡𝑖𝑣𝑒 𝐴𝑇𝑃 − 𝑑𝑒𝑝𝑒𝑛𝑑𝑒𝑛𝑡 𝑡𝑟𝑎𝑛𝑠𝑝𝑜𝑟𝑡 (%) = 𝐴 − 𝐵 ∙ 100\n• A: amount of translocated substrate in the presence of test substance (TS) and ATP\n• B: amount of translocated substrate in the presence of test substance (TS) and AMP\n• C: amount of translocated substrate in the presence of solvent and ATP\n• D: amount of translocated substrate in the presence of solvent and AMP\nRelative inhibition (%) is calculated by setting probe substrate transport in the absence of test substance as\n𝑅𝑒𝑙𝑎𝑡𝑖𝑣𝑒 𝑖𝑛ℎ𝑖𝑏𝑖𝑡𝑖𝑜𝑛 (%) = 𝐴𝑐𝑐𝑆𝑝𝑒𝑐𝑖𝑓𝑖𝑐,𝑥 ∙100\n• Accspecific,x: transporter specific accumulation for a given sample (pmol/mg/min)\n• Accspecific,vehicle: transporter specific accumulation for a solvent control (pmol/mg/min)\nData are expressed as m ean\nmeasured in the vesicular transport inhibition assay.\nNominal ATP Relative ATP Relative\nCompound concentration [µM] dependent transport dependent transport inhibition [%]\n[pmol/mg/min] [% of control]\nData are expressed as mean (n=3) ± SD."}, "[4]": {"settings": "0.03 µM nominal + Benzbromarone 300 µM"}, "[5]": {"settings": "0.30 µM nominal + Benzbromarone 300 µM"}}, "note": "Read-outs that look alike come from different tables or passages of the source."}
{"smiles": "[3H]C(c1ccc2ccccc2c1)C([3H])(NC(=O)C1CCC(CNC(=O)CN2CCN(CC(=O)[O-])CCN(CC(=O)[O-])CCN(CC(=O)[O-])CC2)CC1)C(=O)NCCCCC(NC(=O)NC(CCC(=O)O)C(=O)O)C(=O)O.[Lu+3]", "note": "(stereo not drawn) [([α,β-^3H]Nal)Lu-PSMA-617]", "values": [{"measurement": "Accumulation in OAT4 transporter expressing cells", "setting": "[1]; [4]", "value": "0.03 ± 0.01", "unit": "pmol/mg protein"}, {"measurement": "Accumulation in control cells", "setting": "[1]; [4]", "value": "0.02 ± 0.00", "unit": "pmol/mg protein"}, {"measurement": "Accumulation, active transport", "setting": "[1]; [4]", "value": "0.01 ± 0.01", "unit": "pmol/mg protein"}, {"measurement": "Fold accumulation", "setting": "[1]; [4]", "value": 1.47}, {"measurement": "Accumulation in OAT4 transporter expressing cells", "setting": "[1]; 0.03 µM nominal, no inhibitor", "value": "0.04 ± 0.01", "unit": "pmol/mg protein"}, {"measurement": "Accumulation in control cells", "setting": "[1]; 0.03 µM nominal, no inhibitor", "value": "0.03 ± 0.00", "unit": "pmol/mg protein"}, {"measurement": "Accumulation, active transport", "setting": "[1]; 0.03 µM nominal, no inhibitor", "value": "0.01 ± 0.01", "unit": "pmol/mg protein"}, {"measurement": "Fold accumulation", "setting": "[1]; 0.03 µM nominal, no inhibitor", "value": 1.22}, {"measurement": "Accumulation in OAT4 transporter expressing cells", "setting": "[1]; [5]", "value": "0.40 ± 0.12", "unit": "pmol/mg protein"}, {"measurement": "Accumulation in control cells", "setting": "[1]; [5]", "value": "0.49 ± 0.14", "unit": "pmol/mg protein"}, {"measurement": "Accumulation, active transport", "setting": "[1]; [5]", "value": "-0.09 ± 0.18", "unit": "pmol/mg protein"}, {"measurement": "Fold accumulation", "setting": "[1]; [5]", "value": 0.81}, {"measurement": "Accumulation in OAT4 transporter expressing cells", "setting": "[1]; 0.30 µM nominal, no inhibitor", "value": "0.35 ± 0.11", "unit": "pmol/mg protein"}, {"measurement": "Accumulation in control cells", "setting": "[1]; 0.30 µM nominal, no inhibitor", "value": "0.22 ± 0.05", "unit": "pmol/mg protein"}, {"measurement": "Accumulation, active transport", "setting": "[1]; 0.30 µM nominal, no inhibitor", "value": "0.13 ± 0.12", "unit": "pmol/mg protein"}, {"measurement": "Fold accumulation", "setting": "[1]; 0.30 µM nominal, no inhibitor", "value": 1.58}, {"measurement": "Max. transporter-specific fold accumulation, without inhibitor", "setting": "[1]; 0.3 µM", "value": 1.58}, {"measurement": "Uptake via transporter (OAT4)", "setting": "[1]; absence and presence of benzbromarone", "value": "not taken up"}, {"measurement": "Max. transporter-specific fold accumulation, with inhibitor", "setting": "[1]; Benzbromarone, 0.3 µM", "value": 0.81}, {"measurement": "Accumulation in OCT3 transporter expressing cells", "setting": "[2]; 0.03 µM nominal, 2 min", "value": "0.026 ± 0.005", "unit": "pmol/mg protein"}, {"measurement": "Accumulation in control cells", "setting": "[2]; 0.03 µM nominal, 2 min", "value": "0.022 ± 0.002", "unit": "pmol/mg protein"}, {"measurement": "Accumulation, active transport", "setting": "[2]; 0.03 µM nominal, 2 min", "value": "0.003 ± 0.005", "unit": "pmol/mg protein"}, {"measurement": "Fold accumulation", "setting": "[2]; 0.03 µM nominal, 2 min", "value": 1.15}, {"measurement": "Accumulation in OCT3 transporter expressing cells", "setting": "[2]; 0.03 µM nominal, 20 min", "value": "0.041 ± 0.004", "unit": "pmol/mg protein"}, {"measurement": "Accumulation in control cells", "setting": "[2]; 0.03 µM nominal, 20 min", "value": "0.032 ± 0.005", "unit": "pmol/mg protein"}, {"measurement": "Accumulation, active transport", "setting": "[2]; 0.03 µM nominal, 20 min", "value": "0.009 ± 0.006", "unit": "pmol/mg protein"}, {"measurement": "Fold accumulation", "setting": "[2]; 0.03 µM nominal, 20 min", "value": 1.29}, {"measurement": "Accumulation in OCT3 transporter expressing cells", "setting": "[2]; 0.30 µM nominal, 2 min", "value": "0.351 ± 0.047", "unit": "pmol/mg protein"}, {"measurement": "Accumulation in control cells", "setting": "[2]; 0.30 µM nominal, 2 min", "value": "0.277 ± 0.047", "unit": "pmol/mg protein"}, {"measurement": "Accumulation, active transport", "setting": "[2]; 0.30 µM nominal, 2 min", "value": "0.074 ± 0.067", "unit": "pmol/mg protein"}, {"measurement": "Fold accumulation", "setting": "[2]; 0.30 µM nominal, 2 min", "value": 1.27}, {"measurement": "Accumulation in OCT3 transporter expressing cells", "setting": "[2]; 0.30 µM nominal, 20 min", "value": "0.446 ± 0.098", "unit": "pmol/mg protein"}, {"measurement": "Accumulation in control cells", "setting": "[2]; 0.30 µM nominal, 20 min", "value": "0.332 ± 0.047", "unit": "pmol/mg protein"}, {"measurement": "Accumulation, active transport", "setting": "[2]; 0.30 µM nominal, 20 min", "value": "0.113 ± 0.109", "unit": "pmol/mg protein"}, {"measurement": "Fold accumulation", "setting": "[2]; 0.30 µM nominal, 20 min", "value": 1.34}, {"measurement": "Substrate assessment (OCT3)", "setting": "[2]; 0.03, 0.30 µM, 2, 20 min", "value": "no in vitro substrate"}, {"measurement": "Max. transporter-specific fold accumulation, without inhibitor", "setting": "[2]; 20 min, 0.3 µM", "value": 1.34}, {"measurement": "Relative inhibition", "setting": "[3]; test substance 0.30 µM nominal", "value": 1, "unit": "%"}, {"measurement": "ATP dependent transport", "setting": "[3]; test substance 0.30 µM nominal", "value": "23285.00 ± 769.03", "unit": "pmol/mg/min"}, {"measurement": "Relative ATP dependent transport", "setting": "[3]; test substance 0.30 µM nominal", "value": "98.5 ± 3.67 % of control"}, {"measurement": "Relative inhibition", "setting": "[3]; test substance 3.00 µM nominal", "value": 0, "unit": "%"}, {"measurement": "ATP dependent transport", "setting": "[3]; test substance 3.00 µM nominal", "value": "23687.00 ± 869.33", "unit": "pmol/mg/min"}, {"measurement": "Relative ATP dependent transport", "setting": "[3]; test substance 3.00 µM nominal", "value": "100.22 ± 4.06 % of control"}]}
